Assay results as given in patent publication US20210038732A1, “ANTICANCER MICRORNA AND LIPID FORMULATIONS THEREOF” (INTERNA TECHNOLOGIES B.V., priority 2018, published 2021).

Columns and labels:
[1] = test system: subq human A2058 melanoma tumors; assay: Tumor growth inhibition, different doses and regimens, subq A2058 (Example 4.5); assay type: in vivo, mice; details: day 21
Description: Six to eight weeks old female BALB/c nude mice (Shanghai Lingchang Bio-Technology Co. Ltd, Shanghai, China) were unilaterally and subcutaneously injected in the right flank with 5×10^6 A2058 tumor cells in PBS (0.1 mL/mouse). At the time of randomization, the TVs ranged between 50.3 and 156.3 mm3 (median 104.8, IQR=91.9-127.1). After randomization, the mice received different miRNA-193a dosing concentrations under different dosing regimen (see Table 10 for dosing scheme). The BRAF-inhibitor vemurafenib was also included. Body weights and TVs (caliper measurements) were determined three times/week. *QDx3,QDx4=one injection per day for 3 or 4 consecutive days; BIW=twice a week, BID=twice daily. Po=per oral.

A2058 cells = assay: In vitro transwell migration assay; assay type: cell-based, human; details: miRNA-193a-3p at 10 nM; vs scrambled
Description: To check the migratory ability of cells, a Boyden Chamber assay was performed, which is based on a chamber of two medium-filled compartments separated by a […] pore size membrane (BD falcon). In this assay, depending on cell type 60,000-120,000 cells were seeded in the upper compartment of the membrane in serum free medium and were allowed to migrate through the pores of the membrane into the lower compartment, in which serum is present in the media. The serum acts as a chemoattractant. After an appropriate incubation time, the membrane between two compartments was fixed, stained and 6 different images from each membrane were taken. The number of migratory cells were counted using Image J analysis.
To assess the impact of miRNA-193a-3p on adenosine generation, the release of free phosphate in A2058 melanoma cells was measured as a read out for ATP, ADP, and AMP dephosphorylation in supernatants. […] Similar results were found by measuring the direct amount of adenosine in cell culture supernatants (FIG. 16B). Further, the role of miRNA-193a in A2058 cancer cell migration was investigated.

MC38 Colon carcinoma = assay: Primary tumor growth, syngeneic model; assay type: in vivo, mice; details: 10 mg/kg i.v BIW x 3-4 weeks, diamino lipid nanoparticles, vs PBS, median tumor volume
Excerpt: (§1) In this study, the effect of miRNA-193a formulated in diamino lipid nanoparticles was investigated on the primary tumor growth in a panel of twelve syngeneic tumor models. Six to eight weeks mice (Shanghai Lingchang Bio-Technology Co. Ltd, Shanghai, China) were subcutaneously injected with an appropriate number of syngeneic cancer cells, depending on the cancer model (see Table 18). At the time of randomization, tumor volume (TV) was approximately 80-120 mm^3. Body weights and TVs (caliper measurements) were determined 2-3 times/week. After randomization (indicated as day 0) mice received PBS or miR-193a (formulated in diamino lipid nanoparticles) treatments as shown in Table 19. Each tumor model had two groups as depicted in Table 19. Mice were scheduled to be euthanized after two weeks of follow up after a maximum of four weeks of treatment.

[2] = test system: A20 Reticulum cell sarcoma (lymphoma); assay: Primary tumor growth, syngeneic model; assay type: in vivo, mice; details: 10 mg/kg i.v BIW x 3-4 weeks, vs PBS
Excerpt: as §1

Hepa 1-6 Hepatoma = assay: Primary tumor growth, syngeneic model; assay type: in vivo, mice; details: 10 mg/kg i.v BIW x 3-4 weeks, vs PBS
Excerpt: as §1

B16-F10 Melanoma = assay: Primary tumor growth, syngeneic model; assay type: in vivo, mice; details: 10 mg/kg i.v BIW x 3-4 weeks, vs PBS
Excerpt: as §1

[3] = test system: Renca Renal adenocarcinoma; assay: Primary tumor growth, syngeneic model; assay type: in vivo, mice; details: 10 mg/kg i.v BIW x 3-4 weeks, vs PBS
Excerpt: as §1

H22 Hepatocarcinoma = assay: Primary tumor growth, syngeneic model; assay type: in vivo, mice; details: 10 mg/kg i.v BIW x 3-4 weeks, vs PBS
Excerpt: as §1

B16-BL6 Melanoma = assay: Primary tumor growth, syngeneic model; assay type: in vivo, mice; details: 10 mg/kg i.v BIW x 3-4 weeks, vs PBS
Excerpt: as §1

RM-1 Prostate cancer = assay: Primary tumor growth, syngeneic model; assay type: in vivo, mice; details: 10 mg/kg i.v BIW x 3-4 weeks, vs PBS
Excerpt: as §1

LL/2 Lung carcinoma = assay: Primary tumor growth, syngeneic model; assay type: in vivo, mice; details: 10 mg/kg i.v BIW x 3-4 weeks, vs PBS
Excerpt: as §1

[4] = test system: Pan02 Pancreatic adenocarcinoma; assay: Primary tumor growth, syngeneic model; assay type: in vivo, mice; details: 10 mg/kg i.v BIW x 3-4 weeks, vs PBS
Excerpt: as §1

[5] = test system: EMT-6 Breast mammary carcinoma; assay: Primary tumor growth, syngeneic model; assay type: in vivo, mice; details: 10 mg/kg i.v BIW x 3-4 weeks, vs PBS
Excerpt: as §1

CT26 Colon carcinoma = assay: Primary tumor growth, syngeneic model; assay type: in vivo, mice; details: 10 mg/kg i.v BIW x 3-4 weeks, vs PBS
Excerpt: as §1

4T1 = assay: Cell viability (MTS assay or cell count); assay type: cell-based, mouse; details: 10 nM; TNBC 4T1; normalized to mock
Description: Depending on cancer cell type 3000-6000 cells were seeded in a 96 well plate. After cells attached, they were transfected with different concentrations of miRNA-193a and viability was measured at different time points. Viability measurement was performed using CellTiter 96 AQueous One Solution Cell Proliferation Assay (Promega). 20 μL of MTS reagent was added to 100 μL of media in each well in 96-well plate and incubated for 2 hours at 37° C. Absorbance was measured at 490 nm for each sample in 96 well plate reader.
Different biological effects of miRNA-193a-3p have been tested in various cancer cell lines (see Table 13). For this, various cells were treated with miRNA-193a at different concentrations (1, 3, 10 nM). For all experiments controls (untreated, mock and scrambled) were measured. […] Data shown in Table 13 are the results for miRNA-193a at 10 nM concentration at indicated time points. All the results have been quantified and normalized to the mock control.
miRNA-193a treatment in various cancer cell lines decreased cell viability over time as measured by either an MTS assay or by cell count. It enhanced apoptosis induction over time as measured by a caspase 3/7 apoptosis assay. […] It is of note that due to intrinsic characteristics and gene mutation status of each cell line, performing one method to detect apoptosis is not always ideal for all cell lines.

With “miRNA-193a: duplex of the miRNA-193a-3p of SEQ ID NO: 218 (mimic, sense) with antisense strand SEQ ID NO: 219; naked in vitro, formulated in vivo (sense UGGGACUUUGUAGGCCAGUUTT; antisense AACUGGCCUACAAAGUCCCAGU; chemistry not given here; listed as Homo sapiens)” the “Tumor growth (relative tumor volume)” value ([1]; QDx3 6.7 mg/kg iv x3 weeks, nanoparticles according to the invention) was “significant reduction of tumor growth”, the “Tumor growth (relative tumor volume)” value ([1]; the other dosing regimen (10 mg/kg BIW; 5 mg/kg QDx4)) was “mild trend” and the “Migration ability of A2058 cells” value (A2058 cells) was “significantly suppressed migration ability”. The “% TGI by miRNA-193a” value (MC38 Colon carcinoma) was 71%, the “% TGI by miRNA-193a” value [2] was 54% and the “% TGI by miRNA-193a” value (Hepa 1-6 Hepatoma) was 7%. The “% TGI by miRNA-193a” value (B16-F10 Melanoma) was 56%, the “% TGI by miRNA-193a” value [3] was 22% and the “% TGI by miRNA-193a” value (H22 Hepatocarcinoma) was 45%. For the same substance, the “% TGI by miRNA-193a” value (B16-BL6 Melanoma) was 34%, the “% TGI by miRNA-193a” value (RM-1 Prostate cancer) was 25% and the “% TGI by miRNA-193a” value (LL/2 Lung carcinoma) was 64%. The “% TGI by miRNA-193a” value [4] was 46%, the “% TGI by miRNA-193a” value [5] was 42% and the “% TGI by miRNA-193a” value (CT26 Colon carcinoma) was 12%. The “Viability (96 h)” value (4T1) was “↓ (Viability > 50%)”.
